Where two headings read alike, the source gives them in different places.
What was measured:
[1] = Study MPKF: plasma pharmacokinetics of MDMA and MDA, single 120 mg MDMA·HCl, fasted/fed; format: in vivo, human; settings: for Tmax: median; for concentration at 0.5 h: .5 h
Text: The MPKF was a Phase 1, open-label, randomized sequence, multi-dose, 2-period crossover food effect study in 16 healthy individuals. The MPKF study evaluated plasma concentrations of both MDMA and the active metabolite 3,4-methylenedioxyamphetamine (MDA). Summary PK Parameters of the preliminary data was based on interim analysis are presented in Table 12 Table 12 Table 12, and Table 13 Table 13 Table 13 for MDMA and MDA, respectively.
Participants were randomized to receive 1 of 2 conditions before the other: • Fasted Treatment: at least 10 hours of fasting followed by administration of MDMA HCl with 240 mL water. • Fed Treatment: at least 10 hours of fasting followed by a high-fat (approximately 50% of total caloric content of the meal) and high-calorie (approximately 800 to 1000 calories) meal was consumed within 30 minutes prior to IMP administration.
Participants remained at the clinical research unit (CRU) for each Dosing Session from the time of check-in on the night before dosing until discharge 48 hours after dosing for collection of serial blood samples for PK analysis and safety monitoring. IMP was administered on Day 1 following the treatment sequence to which the participant was randomized. An additional outpatient visit occurred 72 hours after dosing to collect a final PK sample, commensurate with the expected PK profiles of MDMA and MDA. Safety assessments were also performed at this visit.
The washout period between Dosing Sessions was at least 14 days. If a participant experienced emesis within 4 hours of administration, they were to be withdrawn from the study and replaced with a new participant. An End of Study Visit was performed 2 to 10 days after the completion of the final Dosing Session 72-hour follow-up. An informal interim analysis was planned to be conducted after at least 5 participants completed at least 1 Dosing Session to examine PK variability.
The API was a white crystalline powder of pharmaceutical quality, made according to current Good Manufacturing Practices (cGMP) for human use.
Participants: Sixteen healthy individuals were recruited for the study.
Intervention: The study was conducted as a Phase 1, open-label, randomized sequence, multi-dose, 2-period crossover food effect study. Each participant received multiple doses of MDMA, and plasma concentrations of both MDMA and the active metabolite MDA were measured.
Sample Collection: Blood samples were collected at various time points up to 72 hours after dosing. The samples were analyzed using validated liquid chromatography-tandem mass spectrometry (LC-MS/MS) methods.
Data Analysis: The summary PK parameters were presented in Table 12 for MDMA and Table 13 for MDA. The data were analyzed using descriptive statistics, and the mean and standard deviation were calculated. The results were compared between the two periods and analyzed for food effects. Statistical analyses were performed using appropriate methods, such as analysis of variance (ANOVA) and paired t-tests. A p-value of less than 0.05 was considered statistically significant.

[2] = target: human ether-à-go-go-related gene (hERG) potassium current (Homo sapiens, UniProt Q12809); test: hERG potassium current inhibition
human ether-à-go-go-related gene (hERG) potassium current, sequence (Q12809 whole entry): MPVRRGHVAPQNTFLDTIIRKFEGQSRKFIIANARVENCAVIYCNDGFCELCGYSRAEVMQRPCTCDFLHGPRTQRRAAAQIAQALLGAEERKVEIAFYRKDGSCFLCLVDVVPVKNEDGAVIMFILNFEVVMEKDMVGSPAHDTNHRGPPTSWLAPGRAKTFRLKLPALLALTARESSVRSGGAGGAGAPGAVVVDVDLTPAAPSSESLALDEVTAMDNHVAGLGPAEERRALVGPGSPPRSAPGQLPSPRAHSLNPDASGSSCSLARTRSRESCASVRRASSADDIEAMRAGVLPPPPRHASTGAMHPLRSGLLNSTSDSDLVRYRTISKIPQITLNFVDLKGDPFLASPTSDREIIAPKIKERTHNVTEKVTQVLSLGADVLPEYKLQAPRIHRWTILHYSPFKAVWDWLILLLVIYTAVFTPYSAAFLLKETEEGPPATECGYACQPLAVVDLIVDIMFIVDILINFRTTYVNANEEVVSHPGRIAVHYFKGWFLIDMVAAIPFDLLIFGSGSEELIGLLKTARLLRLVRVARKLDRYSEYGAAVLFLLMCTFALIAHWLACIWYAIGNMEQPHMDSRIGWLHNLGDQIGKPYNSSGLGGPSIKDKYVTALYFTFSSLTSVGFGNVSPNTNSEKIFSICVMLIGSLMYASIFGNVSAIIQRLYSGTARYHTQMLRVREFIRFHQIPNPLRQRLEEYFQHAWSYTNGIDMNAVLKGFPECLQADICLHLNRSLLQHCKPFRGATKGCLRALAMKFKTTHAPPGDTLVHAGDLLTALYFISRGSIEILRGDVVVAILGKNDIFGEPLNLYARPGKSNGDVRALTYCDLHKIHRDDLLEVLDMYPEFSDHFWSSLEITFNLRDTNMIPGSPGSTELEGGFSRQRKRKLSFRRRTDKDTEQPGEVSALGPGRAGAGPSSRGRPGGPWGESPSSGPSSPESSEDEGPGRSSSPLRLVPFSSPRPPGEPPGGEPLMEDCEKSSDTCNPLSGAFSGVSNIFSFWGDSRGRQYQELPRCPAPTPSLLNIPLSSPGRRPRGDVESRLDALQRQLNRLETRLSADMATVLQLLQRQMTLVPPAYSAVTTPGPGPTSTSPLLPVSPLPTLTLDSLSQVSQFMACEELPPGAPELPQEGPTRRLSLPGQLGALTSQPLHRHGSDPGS

[3] = tested on: human Caco-2 cells; test: Caco-2 permeability
[4] = tested on: rats; test: Daily 28-day repeated dose toxicology study, rats; format: in vivo, rat; settings: 0, 10, 50, or 100 mg/kg/day, daily 28 days
Method: Based on negative in vivo and in vitro genotoxicity studies, the carcinogenic risk of MDMA·HCl is low. No tumors were reported after daily 28-day repeated dose toxicology studies of MDMA in rats (0, 10, 50, or 100 mg/kg/day) or dogs (0, 3, 9, or 15 mg/kg/day).

[5] = cited from earlier work
[6] = Fasted N = 15, 120 mg MDMA·HCl, preliminary
[7] = Fasted N = 15, 120 mg MDMA·HCl, preliminary, arithmetic mean
[8] = Fed N = 11, 120 mg MDMA·HCl, preliminary
[9] = Fed N = 11, 120 mg MDMA·HCl, preliminary, arithmetic mean
[10] = human, plasma, oral, 120 mg, fasted treatment group, read-out: PK plasma concentration, Geom. Mean
[11] = human, plasma, oral, 120 mg, fasted treatment group, read-out: PK plasma concentration, Mean
[12] = human, plasma, oral, 120 mg, fasted treatment group, read-out: PK plasma concentration, Median
[13] = human, plasma, oral, 120 mg, fed treatment group, read-out: PK plasma concentration, Geom. Mean
[14] = human, plasma, oral, 120 mg, fed treatment group, read-out: PK plasma concentration, Mean
[15] = human, plasma, oral, 120 mg, fed treatment group, read-out: PK plasma concentration, Median

For `CNC(C)Cc1ccc2c(c1)OCO2` (stereo not drawn) [MDMA, 3,4-methylenedioxymethamphetamine], the “higher plasma PK values in intermediate relative to normal CYP2D6 metabolizers” value ([1]; 8 intermediate, 8 normal metabolizers) was “approximately 26%”, the “Cmax, Geometric LSM” value ([1]; Fasted) was 238 ng/mL and the Tlag [1, 6] was 0.6 h. The CL/F [1, 7] was 29.5 L/h, the Cmax [1, 7] was 238 ng/mL and the Tmax [1, 6] was 2 h. For the same compound, the “AUC0-inf, Geometric LSM” value ([1]; Fed) was 3357 ng·h/mL, the “Cmax, Geometric LSM” value ([1]; Fed) was 229 ng/mL and the Tlag [1, 8] was 0.7 h. It also gave an AUC(0-inf) [1, 9] of 3318 ng·h/mL, a CL/F [1, 9] of 30.1 L/h and a Cmax [1, 9] of 227 ng/mL. It also gave a Tmax [1, 8] of 4 h, a Cmax ([1]; both sexes, human, plasma, oral, single 120 mg dose of MDMA·HCl, fasting healthy males and females, read-out: Cmax) of 261 ng/mL and a Cmax ([1]; both sexes, human, plasma, po, single 120 mg dose of MDMA·HCl, fasting healthy males and females, read-out: Cmax) of 261 ng/mL. For the same compound, the “AUC0-72, Geometric Mean Ratio” value ([1]; fed vs fasted) was 0.99, the “AUC0-inf, Geometric Mean Ratio” value ([1]; fed vs fasted) was 0.99 and the “AUC0-t, Geometric Mean Ratio” value ([1]; fed vs fasted) was 1.00. For the same compound, the “Cmax, Geometric Mean Ratio” value ([1]; fed vs fasted) was 0.97, the “dose proportionality of pharmacokinetics” value ([1]; higher than dose proportional increases, auto-inhibition of CYP2D6) was “non-linear” and the AUC(0-t) ([1]; human, plasma, oral, 120 mg, Fasted, read-out: AUC0-72, Geometric LSM) was 3360 ng·h/mL. It also gave an AUC(0-inf) ([1]; human, plasma, oral, 120 mg, Fasted, read-out: AUC0-inf, Geometric LSM) of 3380 ng·h/mL, an AUC(0-t) ([1]; human, plasma, oral, 120 mg, Fasted, read-out: AUC0-t, Geometric LSM) of 3120 ng·h/mL and an AUC(0-t) ([1]; human, plasma, oral, 120 mg, Fed, read-out: AUC0-72, Geometric LSM) of 3340 ng·h/mL. It also gave an AUC(0-t) ([1]; human, plasma, oral, 120 mg, Fed, read-out: AUC0-t, Geometric LSM) of 3110 ng·h/mL, a half-life ([1]; human, plasma, oral, 120 mg, both fed and fasted groups, read-out: mean elimination half-life) of 8 to 9 h and a concentration at 1 h [1, 10] of 111 ng/mL. For the same compound, the concentration at 1 h [1, 11] was 111 ng/mL, the concentration at 1 h [1, 12] was 124 ng/mL and the concentration at 2 h [1, 10] was 186 ng/mL. The concentration at 2 h [1, 11] was 210 ng/mL, the concentration at 2 h [1, 12] was 211 ng/mL and the concentration at 4 h [1, 10] was 219 ng/mL. It also gave a concentration at 4 h [1, 11] of 225 ng/mL, a concentration at 4 h [1, 12] of 218 ng/mL and a concentration at 6 h [1, 10] of 188 ng/mL. It also gave a concentration at 6 h [1, 11] of 193 ng/mL, a concentration at 6 h [1, 12] of 199 ng/mL and a concentration at 8 h [1, 10] of 160 ng/mL. It also gave a concentration at 8 h [1, 11] of 166 ng/mL, a concentration at 8 h [1, 12] of 165 ng/mL and a concentration at 12 h [1, 10] of 111 ng/mL. The concentration at 12 h [1, 11] was 118 ng/mL, the concentration at 12 h [1, 12] was 120 ng/mL and the concentration at 24 h [1, 10] was 44.2 ng/mL. The concentration at 24 h [1, 11] was 50.1 ng/mL, the concentration at 24 h [1, 12] was 53.6 ng/mL and the concentration at 48 h [1, 10] was 12.3 ng/mL. It also gave a concentration at 48 h [1, 11] of 7.61 ng/mL, a concentration at 48 h [1, 12] of 6.5 ng/mL and a concentration at 72 h [1, 10] of 6.25 ng/mL. It also gave a concentration at 72 h [1, 11] of 0.417 ng/mL, a concentration at 72 h [1, 12] of 0 ng/mL and a concentration at 0.5 h [1, 10] of 39.3 ng/mL. It also gave a concentration at 0.5 h [1, 11] of 23.1 ng/mL, a concentration at 0.5 h [1, 12] of 0 ng/mL and a concentration at 1 h [1, 13] of 46.2 ng/mL. It also gave a concentration at 1 h [1, 14] of 59.8 ng/mL, a concentration at 1 h [1, 15] of 47.4 ng/mL and a concentration at 2 h [1, 13] of 118 ng/mL. The concentration at 2 h [1, 14] was 129 ng/mL, the concentration at 2 h [1, 15] was 132 ng/mL and the concentration at 4 h [1, 13] was 222 ng/mL. It also gave a concentration at 4 h [1, 14] of 228 ng/mL, a concentration at 4 h [1, 15] of 224 ng/mL and a concentration at 6 h [1, 13] of 208 ng/mL. The concentration at 6 h [1, 14] was 215 ng/mL, the concentration at 6 h [1, 15] was 208 ng/mL and the concentration at 8 h [1, 13] was 173 ng/mL. The concentration at 8 h [1, 14] was 181 ng/mL, the concentration at 8 h [1, 15] was 180 ng/mL and the concentration at 12 h [1, 13] was 120 ng/mL. The concentration at 12 h [1, 14] was 129 ng/mL, the concentration at 12 h [1, 15] was 132 ng/mL and the concentration at 24 h [1, 13] was 42 ng/mL. The concentration at 24 h [1, 14] was 50.5 ng/mL, the concentration at 24 h [1, 15] was 41.4 ng/mL and the concentration at 48 h [1, 13] was 14.2 ng/mL. It also gave a concentration at 48 h [1, 14] of 7.41 ng/mL, a concentration at 48 h [1, 15] of 0 ng/mL and a concentration at 72 h [1, 13] of 11.3 ng/mL. It also gave a concentration at 72 h [1, 14] of 0.81 ng/mL, a concentration at 72 h [1, 15] of 0 ng/mL and a concentration at 0.5 h [1, 13] of 18.5 ng/mL. For the same compound, the concentration at 0.5 h [1, 14] was 10.2 ng/mL, the concentration at 0.5 h [1, 15] was 4.12 ng/mL and the Vd/F ([1]; human, plasma, po, 120 mg, Fasted N = 15, 120 mg MDMA·HCl, preliminary, arithmetic mean) was 372 L. For the same compound, the AUC(0-t) ([1]; human, plasma, po, 120 mg, Fasted N = 15, 120 mg MDMA·HCl, preliminary, arithmetic mean, read-out: AUC0-72) was 3370 ng·h/mL, the AUC(0-inf) ([1]; human, plasma, po, 120 mg, Fasted N = 15, 120 mg MDMA·HCl, preliminary, arithmetic mean, read-out: AUC0-inf) was 3390 ng·h/mL and the AUC(0-t) ([1]; human, plasma, po, 120 mg, Fasted N = 15, 120 mg MDMA·HCl, preliminary, arithmetic mean, read-out: AUC0-t) was 3120 ng·h/mL. It also gave a half-life ([1]; human, plasma, po, 120 mg, Fasted N = 15, 120 mg MDMA·HCl, preliminary, arithmetic mean, read-out: t1/2 (converted)) of 8.7 h, a Vd/F ([1]; human, plasma, po, 120 mg, Fed N = 11, 120 mg MDMA·HCl, preliminary, arithmetic mean) of 349 L and an AUC(0-t) ([1]; human, plasma, po, 120 mg, Fed N = 11, 120 mg MDMA·HCl, preliminary, arithmetic mean, read-out: AUC0-72) of 3300 ng·h/mL. The AUC(0-t) ([1]; human, plasma, po, 120 mg, Fed N = 11, 120 mg MDMA·HCl, preliminary, arithmetic mean, read-out: AUC0-t) was 3060 ng·h/mL, the half-life ([1]; human, plasma, po, 120 mg, Fed N = 11, 120 mg MDMA·HCl, preliminary, arithmetic mean, read-out: t1/2 (converted)) was 8 h and the AUC(0-inf) ([1]; human, plasma, po, 120 mg, single 120 mg dose of MDMA·HCl, fasting, read-out: AUC0-inf) was 3890 ng·h/mL. The half-life ([1]; human, plasma, po, 120 mg, single 120 mg dose of MDMA·HCl, fasting, read-out: t1/2 (converted)) was 9.1 h, the Tmax ([1]; human, plasma, po, single 120 mg dose of MDMA·HCl, fasting, read-out: Tmax) was no more than 2 h and the “plasma concentrations and PK parameters (Cmax, AUC0-t, AUC0-inf, AUC0-72, AUC% ext), fed vs fasted” value ([1]; single 120 mg MDMA HCl) was “not significantly different”. The Tmax ([1]; single 120 mg dose of MDMA·HCl, fasting) was 2.00 h, the “unbound maximum concentration (Cmax)” value ([1]; single 120 mg dose, estimated from Cmax 261 ng/ml and 51% protein binding) was 660 nM and the IC50 [2] was 206 µM. For the same compound, the “Hill coefficient, hERG” value ([2]; human) was 1.1, the “margin of hERG IC50 over clinical plasma concentration” value ([2]; supratherapeutic single dose of 180 mg MDMA HCl) was 111 x and the “permeability in human Caco-2 cells” value [3] was “highly permeable”. The tumors [4] was “No tumors”, the “unchanged MDMA excreted in urine” value ([5]; oral 1.0 mg/kg MDMA) was 8% and the “unchanged MDMA excreted in urine” value ([5]; oral 1.6 mg/kg MDMA) was 11%.

From patent US20250134855A1, “CO[…] AND METHODS OF USING SAME” (LYKOS THERAPEUTICS, INC., priority 2022, published 2025)
